Results published in US20260078103A1, “ISOQUINOLONES AS PI3K INHIBITORS” (OnKure, Inc., priority 2022, published 2026).
Like-named read-outs stand apart in the source and are kept apart here.

What was measured:
Assay type in all cases: cell-based
[1] = tested on: T47D cells expressing mutant PI3Ka (H1047R); experiment: In vitro cell proliferation, T47D cells (CellTiter-Glo); conditions: inhibition of proliferation, read-out: Avg T-47D EC50
Method in brief: (§1)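 1,500 cells/well seeded onto pre-stamped 10-pt dilution plates; T47D in RPMI + 10% FBS + insulin 0.2 units/mL, SKBR3 in McCoys 5a + 10% FBS. 72 h, 37 °C, 5% CO2. CTG readout. 0% = 0.1% DMSO, 100% = 10 uM Alpelisib; sigmoidal fit gives EC50.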

[2] = tested on: SKBR3 cells express WT PI3Ka; experiment: In vitro cell proliferation, SKBR3 cells (CellTiter-Glo); conditions: inhibition of proliferation
Method in brief: as §1

[3] = tested on: phosphorylation of AKT (pAKT) in T47D cells expressing mutant PI3Ka (H1047R); experiment: In vitro cell pAKT (Ser473) HTRF, T47D cells; conditions: cellular pAKT, T47D cells, mutant PI3Ka (H1047R), 6 hours, read-out: Avg T-47D IC50
Method in brief: (§2)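 pAKT (Ser473) was quantified by HTRF in lysates from cells exposed 6 h at 37 °C to 10-point compound series, with T47D in insulin-supplemented RPMI/10% FBS and SKBR3 in McCoy's 5a/10% FBS. Controls: 0.1% DMSO (high) and 10 uM alpelisib (low). IC50 from sigmoidal curve fitting.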

[4] = tested on: phosphorylation of AKT (pAKT) in SKBR3 cells express WT PI3Ka; experiment: In vitro cell pAKT (Ser473) HTRF, SKBR3 cells; conditions: cellular pAKT
Method in brief: as §2

Structure (SMILES)	EC50 ([1]; 72 hours)	EC50 ([2]; 72 hours)	IC50 [3]	IC50 ([4]; 6 hours)	EC50 ([1]; Homo sapiens, T47D, 72 h)	EC50 ([2]; Homo sapiens, SK-BR-3, 72 h)	IC50 ([3]; Homo sapiens, T47D, 6 h)	IC50 ([4]; Homo sapiens, SK-BR-3, 6 h)
Cc1cc([C@@H](C)Nc2ccccc2C(=O)O)c2cc(N3CCN(c4cccc(C#N)c4)CC3)n(C)c(=O)c2c1 [Example 161]	1 to 500 nM	2000 to 15000 nM	1 to 500 nM	2000 to 15000 nM	–	–	–	–
Cc1cc([C@@H](C)Nc2ccccc2C(=O)O)c2cc(N3CCN(CC(F)F)CC3)n(C)c(=O)c2c1 [Example 162]	1 to 500 nM	> 15000 nM	1 to 500 nM	2000 to 15000 nM	–	–	–	–
Cc1cc([C@@H](C)Nc2ccccc2C(=O)O)c2cc(N3CCC(C)(C#N)CC3)n(C)c(=O)c2c1 [Example 164]	1 to 500 nM	2000 to 15000 nM	1 to 500 nM	2000 to 15000 nM	–	–	–	–
Cc1cc([C@@H](C)Nc2ccccc2C(=O)O)c2cc(N3CC(C)(C#N)C3)n(C)c(=O)c2c1 [Example 165]	500 to 2000 nM	> 15000 nM	1 to 500 nM	> 15000 nM	–	–	–	–
Cc1cc(C(C)Nc2ccccc2C(=O)O)c2cc(N3CC4(CCN(CC(F)(F)F)C4)C3)n(C)c(=O)c2c1 (centres unmarked) [Example 171]	500 to 2000 nM	> 15000 nM	1 to 500 nM	> 15000 nM	–	–	–	–
Cc1cc(C(C)Nc2ccccc2C(=O)O)c2cc(N3CC4(CCN(CC(F)(F)F)CC4)C3)n(C)c(=O)c2c1 (centres unmarked) [Example 172]	1 to 500 nM	> 15000 nM	1 to 500 nM	> 15000 nM	–	–	–	–
Cc1cc([C@@H](C)Nc2ccccc2C(=O)O)c2cc(N3CCN(Cc4ccccn4)CC3)n(C)c(=O)c2c1 [Example 175]	–	–	–	–	1 to 500 nM	2000 to 15000 nM	1 to 500 nM	> 15000 nM
Cc1cc([C@@H](C)Nc2ccccc2C(=O)O)c2cc(N3CCN(Cc4cccc(C)n4)CC3)n(C)c(=O)c2c1 [Example 176]	–	–	–	–	1 to 500 nM	2000 to 15000 nM	1 to 500 nM	> 15000 nM
Cc1cc([C@@H](C)Nc2ccccc2C(=O)O)c2cc(N3CC(C)(c4ccccc4)C3)n(C)c(=O)c2c1 [Example 179]	–	–	–	–	1 to 500 nM	> 15000 nM	1 to 500 nM	> 15000 nM
COC1CN(c2cc3c([C@@H](C)Nc4ccccc4C(=O)O)cc(C)cc3c(=O)n2C)C1 [Example 180]	–	–	–	–	1 to 500 nM	> 15000 nM	1 to 500 nM	> 15000 nM
Cc1cc([C@@H](C)Nc2ccccc2C(=O)O)c2cc(N3CC4(CN(CC(F)(F)F)C4)C3)n(C)c(=O)c2c1 [Example 184]	–	–	–	–	500 to 2000 nM	> 15000 nM	1 to 500 nM	> 15000 nM
Cc1cc([C@@H](C)Nc2ccccc2C(=O)O)c2cc(N3CCC4(CN(CC(F)(F)F)C4)C3)n(C)c(=O)c2c1 [Example 185]	–	–	–	–	1 to 500 nM	> 15000 nM	1 to 500 nM	2000 to 15000 nM
Cc1cc([C@@H](C)Nc2ccccc2C(=O)O)c2cc(N3CCN(c4ccccn4)CC3)n(C)c(=O)c2c1 [Example 186]	–	–	–	–	1 to 500 nM	2000 to 15000 nM	1 to 500 nM	2000 to 15000 nM
Cc1cc([C@@H](C)Nc2ccccc2C(=O)O)c2cc(N3CCN(c4ccnc(C)n4)CC3)n(C)c(=O)c2c1 [Example 187]	–	–	–	–	1 to 500 nM	2000 to 15000 nM	1 to 500 nM	> 15000 nM
Cc1cc([C@@H](C)Nc2ccccc2C(=O)O)c2cc(N3CCN(c4cccnc4C#N)CC3)n(C)c(=O)c2c1 [Example 188]	–	–	–	–	1 to 500 nM	2000 to 15000 nM	1 to 500 nM	500 to 2000 nM
Cc1cc([C@@H](C)Nc2ccccc2C(=O)O)c2cc(-c3ccc(OC(F)F)nc3)n(C)c(=O)c2c1 [Example 189]	–	–	–	–	1 to 500 nM	> 15000 nM	1 to 500 nM	> 15000 nM
Cc1cc(C(C)Nc2ccccc2C(=O)O)c2cc(N3CC4C(C3)C4C(F)(F)F)n(C)c(=O)c2c1 (centres unmarked) [Example 191]	500 to 2000 nM	> 15000 nM	1 to 500 nM	> 15000 nM	–	–	–	–
Cc1cc([C@@H](C)Nc2ccccc2C(=O)O)c2cc(N3CC(F)(c4cccnc4)C3)n(C)c(=O)c2c1 [Example 192]	–	–	–	–	1 to 500 nM	> 15000 nM	1 to 500 nM	> 15000 nM
COCC1CN(c2cc3c([C@@H](C)Nc4ccccc4C(=O)O)cc(C)cc3c(=O)n2C)C1 [Example 193]	–	–	–	–	500 to 2000 nM	> 15000 nM	1 to 500 nM	> 15000 nM
Cc1cc([C@@H](C)Nc2ccccc2C(=O)O)c2cc(-c3ccc(Oc4ccc(F)cc4)nc3)n(C)c(=O)c2c1 [Example 194]	500 to 2000 nM	> 15000 nM	1 to 500 nM	> 15000 nM	–	–	–	–
Cc1cc([C@@H](C)Nc2ccccc2C(=O)O)c2cc(N3CC4(CCCN(CC(F)(F)F)C4)C3)n(C)c(=O)c2c1 [Example 195]	500 to 2000 nM	> 15000 nM	1 to 500 nM	> 15000 nM	–	–	–	–
Cc1cc([C@@H](C)Nc2ccccc2C(=O)O)c2cc(N3CCN(c4cccc(C)n4)CC3)n(C)c(=O)c2c1 [Example 196]	1 to 500 nM	> 15000 nM	1 to 500 nM	2000 to 15000 nM	–	–	–	–
Cc1cc([C@@H](C)Nc2ccccc2C(=O)O)c2cc(N3CCN(c4ccccc4C#N)CC3)n(C)c(=O)c2c1 [Example 197]	–	–	–	–	1 to 500 nM	> 15000 nM	1 to 500 nM	2000 to 15000 nM
Cc1cc([C@@H](C)Nc2ccccc2C(=O)O)c2cc(N3CCN(c4ncnn4C)CC3)n(C)c(=O)c2c1 [Example 198]	–	–	–	–	500 to 2000 nM	> 15000 nM	500 to 2000 nM	> 15000 nM
Cc1cc([C@@H](C)Nc2ccccc2C(=O)O)c2cc(N3CCN(c4ncccc4C#N)CC3)n(C)c(=O)c2c1 [Example 199]	–	–	–	–	1 to 500 nM	2000 to 15000 nM	1 to 500 nM	2000 to 15000 nM
Cc1cc([C@@H](C)Nc2ccccc2C(=O)O)c2cc(N3CCN(Cc4cnn(C)c4)CC3)n(C)c(=O)c2c1 [Example 200]	–	–	–	–	500 to 2000 nM	> 15000 nM	500 to 2000 nM	> 15000 nM
